The values below come from PubChem BioAssay AID256 (DTP/NCI, 2004).

The assay deals with CD2F1 mice, L1210 leukemia ip, survival T/C. As to the kind of experiment: NCI In Vivo Anticancer Drug Screen. Data for tumor model L1210 Leukemia (intraperitoneal) in CD2F1 (CDF1) mice. To be noted: higher = longer survival. The method in brief: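 Transplantable tumor in mice; compound-treated vs vehicle-treated groups. Read-out = treated/control ratio of the measured endpoint.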

Where [1] appears, read: endpoint: mean survival time, dose: 100.0 mg/kg/injection, schedule: Q01DX001 (ip), vehicle: saline with Tween-80.
[2] abbreviates: endpoint: mean survival time, dose: 200.0 mg/kg/injection, schedule: Q01DX001 (ip), vehicle: saline with Tween-80.
The mark [3] stands for this setting: endpoint: mean survival time, dose: 400.0 mg/kg/injection, schedule: Q01DX001 (ip), vehicle: saline with Tween-80.
[4] abbreviates: endpoint: mean survival time, dose: 6.25 mg/kg/injection, schedule: Q01DX009 (ip), vehicle: saline with Tween-80.
[5] abbreviates: endpoint: mean survival time, dose: 12.5 mg/kg/injection, schedule: Q01DX009 (ip), vehicle: saline with Tween-80.
Where [6] appears, read: endpoint: mean survival time, dose: 25.0 mg/kg/injection, schedule: Q01DX009 (ip), vehicle: saline with Tween-80.
Setting [7] is: endpoint: mean survival time, dose: 50.0 mg/kg/injection, schedule: Q01DX009 (ip), vehicle: saline with Tween-80.
[8] abbreviates: endpoint: mean survival time, dose: 100.0 mg/kg/injection, schedule: Q01DX009 (ip), vehicle: saline with Tween-80.
Where [9] appears, read: endpoint: mean survival time, dose: 100.0 mg/kg/injection, schedule: Q01DX001 (ip), vehicle: Klucel (hydroxypropylcellulose) (HPC).
Setting [10] is: endpoint: mean survival time, dose: 200.0 mg/kg/injection, schedule: Q01DX001 (ip), vehicle: Klucel (hydroxypropylcellulose) (HPC).
[11] abbreviates: endpoint: mean survival time, dose: 400.0 mg/kg/injection, schedule: Q01DX001 (ip), vehicle: Klucel (hydroxypropylcellulose) (HPC).
The mark [12] stands for this setting: endpoint: mean survival time, dose: 200.0 mg/kg/injection, schedule: Q01DX009 (ip), vehicle: saline with Tween-80.
Setting [13] is: endpoint: mean survival time, dose: 400.0 mg/kg/injection, schedule: Q01DX009 (ip), vehicle: saline with Tween-80.
The mark [14] stands for this setting: endpoint: mean survival time, dose: 100.0 mg/kg/injection, schedule: Q04DX002 (ip), vehicle: saline with Tween-80.
The mark [15] stands for this setting: endpoint: mean survival time, dose: 200.0 mg/kg/injection, schedule: Q04DX002 (ip), vehicle: saline with Tween-80.
Setting [16] is: endpoint: mean survival time, dose: 400.0 mg/kg/injection, schedule: Q04DX002 (ip), vehicle: saline with Tween-80.

Molecules are shown by their SMILES. “And” between values parts separate entries of the source, which are not always exact repeats. Identical values can stand only once. Inconclusive results and toxic doses are left out. Non-standard residues stand in square brackets, D forms with d. Residues, ends and D or L forms follow the SMILES beside them. ξ: configuration not given here. *: point of attachment. ξL = CC(C)CC(N)C(=O)O; ClAc = O=C(CCl)*

For the molecule `O=C1OC(=O)C2C1C1(c3ccccc3)OC2(c2ccccc2)c2ccccc21` (stereo unspecified), the T/C was 100 % of control (endpoint: mean survival time, dose: 50.0 mg/kg/injection, schedule: Q01DX001 (ip), vehicle: saline with Tween-80); 100 % of control under setting [1]; 100 % of control under setting [2].
On to `CNC(=O)c1cccc2c(Nc3ccc(NS(C)(=O)=O)cc3OC)c3cccc(C)c3nc12`, for which the T/C is 181 % of control (endpoint: median survival time, dose: 3.0 mg/kg/injection, schedule: Q01DX009 (ip), vehicle: water); 195 % of control (endpoint: median survival time, dose: 6.25 mg/kg/injection, schedule: Q01DX009 (ip), vehicle: water); 98 % of control (endpoint: median survival time, dose: 12.0 mg/kg/injection, schedule: Q01DX009 (ip), vehicle: water); 160 % of control (endpoint: median survival time, dose: 12.5 mg/kg/injection, schedule: Q01DX005 (oral), vehicle: water); 102 % of control (endpoint: median survival time, dose: 12.5 mg/kg/injection, schedule: Q01DX009 (ip), vehicle: water); 102 % of control (endpoint: median survival time, dose: 25.0 mg/kg/injection, schedule: Q01DX005 (oral), vehicle: water). For the same molecule, the T/C (endpoint: median survival time, dose: 25.0 mg/kg/injection, schedule: Q01DX009 (ip), vehicle: water) was 87 % of control.
As for `Cc1cccnc1Br`, the T/C (endpoint: mean survival time, dose: 12.5 mg/kg/injection, schedule: Q01DX009 (ip), vehicle: water) is 95 % of control; the T/C (endpoint: mean survival time, dose: 25.0 mg/kg/injection, schedule: Q01DX009 (ip), vehicle: water) is 103 % of control; the T/C (endpoint: mean survival time, dose: 50.0 mg/kg/injection, schedule: Q01DX009 (ip), vehicle: water) was 95 % of control; the T/C (endpoint: mean survival time, dose: 100.0 mg/kg/injection, schedule: Q01DX009 (ip), vehicle: water) is 95 % of control; the T/C (endpoint: mean survival time, dose: 200.0 mg/kg/injection, schedule: Q01DX009 (ip), vehicle: water) was 88 % of control.
With `CCC(C)(O)C1CC1` (stereo unspecified), the T/C is, setting by setting: under setting [1], 98 % of control; under setting [2], 103 % of control; under setting [3], 104 % of control.
Consider `Cc1cc2cc3cc(C)c(N)cc3nc2cc1N`, for which the T/C was 103 % of control and 106 % of control (endpoint: mean survival time, dose: 3.12 mg/kg/injection, schedule: Q01DX009 (ip), vehicle: saline with Tween-80); 101 % of control and 107 % of control under setting [4]; 106 % of control under setting [5]; 98 % of control and 106 % of control under setting [6]; 86 % of control and 97 % of control under setting [7]; 92 % of control under setting [8].
Turning to `CC(C)CC(NC(=O)CCl)C(=O)NCC(=O)O` (stereo unspecified) (ClAc-[ξL]-Gly-OH), the T/C is 96 % of control under setting [6], 96 % of control under setting [7] and 94 % of control under setting [8].
For the molecule `O=C1CC2C=CC1CC2` (stereo unspecified), the T/C runs as follows: (endpoint: mean survival time, dose: 100.0 mg/kg/injection, schedule: Q04DX003 (ip), vehicle: other) 105 % of control; (endpoint: mean survival time, dose: 200.0 mg/kg/injection, schedule: Q04DX003 (ip), vehicle: other) 101 % of control; (endpoint: mean survival time, dose: 400.0 mg/kg/injection, schedule: Q04DX003 (ip), vehicle: other) 100 % of control.
Take `O=CN(O)CC(=O)O.[Zn]`: the T/C is, setting by setting: (endpoint: mean survival time, dose: 12.5 mg/kg/injection, schedule: Q04DX003 (ip), vehicle: saline) 96 % of control; (endpoint: mean survival time, dose: 25.0 mg/kg/injection, schedule: Q04DX003 (ip), vehicle: saline) 95 % of control.
Regarding `NC/C(=N\O)c1ccc(-c2ccccc2)cc1`, the T/C under setting [9] was 91 % of control, the T/C under setting [10] is 91 % of control and the T/C under setting [11] was 91 % of control.
In the case of `OCC1OC(n2cnc3c(SSc4ncnc5c4ncn5C4CC(O)C(CO)O4)ncnc32)CC1O` (stereo unspecified), for the setting “endpoint: mean survival time, dose: 178.0 mg/kg/injection, schedule: Q01DX001 (ip), vehicle: saline”, the T/C was 114 % of control.
On to `COc1ccc(C2C3CN(C4CCCCC4)C(=O)C3NN2C(C)=O)cc1` (stereo unspecified), for which the T/C reads like this: under setting [8], 91 % of control; under setting [12], 89 % of control; under setting [13], 89 % of control.
Regarding `CC1=Nc2ccccc2N=C(C)C1`, the T/C is 101 % of control (endpoint: mean survival time, dose: 50.0 mg/kg/injection, schedule: Q01DX009 (ip), vehicle: acetone) and 98 % of control (endpoint: mean survival time, dose: 100.0 mg/kg/injection, schedule: Q01DX009 (ip), vehicle: acetone).
For `COc1ccc(N=c2ssc(SC)c2-c2ccccc2)cc1`, the T/C reads like this: under setting [1], 102 % of control; under setting [8], 103 % of control; (endpoint: mean survival time, dose: 100.0 mg/kg/injection, schedule: Q04DX003 (ip), vehicle: saline with Tween-80) 101 % of control; under setting [2], 100 % of control; under setting [12], 102 % of control; (endpoint: mean survival time, dose: 200.0 mg/kg/injection, schedule: Q04DX003 (ip), vehicle: saline with Tween-80) 102 % of control. Also, the T/C by setting is: under setting [3], 102 % of control; under setting [13], 103 % of control; (endpoint: mean survival time, dose: 400.0 mg/kg/injection, schedule: Q04DX003 (ip), vehicle: saline with Tween-80) 98 % of control.
For `COc1cc([C@@H]2c3cc4c(cc3[C@H](OC(C)=O)[C@H]3COC(=O)[C@@H]23)OCO4)cc(OC)c1OC`, the T/C (endpoint: mean survival time, dose: 100.0 mg/kg/injection, schedule: Q01DX009 (ip), vehicle: saline sonified) is 88 % of control.
Take `COc1ccccc1C1N(C)CCCN1C`: the T/C is 100 % of control under setting [4], 102 % of control under setting [5] and 102 % of control under setting [6].
`N#CCCC(=O)c1nc(N)nc(N)n1`: the T/C runs as follows: under setting [7], 91 % of control; under setting [8], 91 % of control; under setting [12], 91 % of control.
`O=C1OC2CC1(O)CC(O)C2O` (stereo unspecified): the T/C runs as follows: under setting [1], 96 % of control; under setting [2], 89 % of control.
Take `O=S(=O)(c1ccc(Cl)cc1)c1ccc(Cl)cc1`: the T/C under setting [9] was 93 % of control, the T/C under setting [10] is 90 % of control and the T/C under setting [11] is 96 % of control.
As to `C=CCS(=O)[O-].[C-]#[O+].[C-]#[O+].[Fe+6].[c-]1[c-][c-][cH-][c-]1`, the T/C was 97 % of control (endpoint: mean survival time, dose: 12.5 mg/kg/injection, schedule: Q04DX002 (ip), vehicle: saline); 102 % of control (endpoint: mean survival time, dose: 25.0 mg/kg/injection, schedule: Q04DX002 (ip), vehicle: saline); 100 % of control (endpoint: mean survival time, dose: 50.0 mg/kg/injection, schedule: Q04DX002 (ip), vehicle: saline).
Consider `CC(C)(Cl)[N+](=O)[O-]`, for which the T/C reads like this: (endpoint: mean survival time, dose: 100.0 mg/kg/injection, schedule: Q04DX003 (ip), vehicle: saline) 98 % of control; (endpoint: mean survival time, dose: 200.0 mg/kg/injection, schedule: Q04DX003 (ip), vehicle: saline) 104 % of control; (endpoint: mean survival time, dose: 400.0 mg/kg/injection, schedule: Q04DX003 (ip), vehicle: saline) 96 % of control.
In the case of `C/C(=N\Nc1ccccc1)C1=C(O)C(Cc2ccccc2)NC1=O` (stereo unspecified), the T/C under setting [14] was 100 % of control, the T/C under setting [15] is 100 % of control and the T/C under setting [16] was 103 % of control.
As to `C=C(Br)CNC(=O)C(C)(C)C`, the T/C was 96 % of control under setting [5], 96 % of control under setting [6], 100 % of control under setting [7] and 93 % of control under setting [8].
Consider `CCCC/C=C/C(=O)OCC`, for which the T/C was 91 % of control and 96 % of control under setting [7]; 103 % of control and 101 % of control under setting [8]; 103 % of control and 101 % of control under setting [12].
`CCN(CC)C(=O)SCCSC(=O)N(CC)CC`: the T/C is, setting by setting: (endpoint: mean survival time, dose: 25.0 mg/kg/injection, schedule: Q04DX002 (ip), vehicle: saline with Tween-80) 96 % of control; (endpoint: mean survival time, dose: 50.0 mg/kg/injection, schedule: Q04DX002 (ip), vehicle: saline with Tween-80) 104 % of control; under setting [14], 101 % of control; under setting [15], 91 % of control; under setting [16], 95 % of control.
For `CC(C)NC(=O)N(CCCCBr)N=O`, the T/C (endpoint: median survival time, dose: 12.0 mg/kg/injection, schedule: Q01DX009 (ip), vehicle: Klucel (hydroxypropylcellulose) (HPC)) is 108 % of control; the T/C (endpoint: median survival time, dose: 25.0 mg/kg/injection, schedule: Q01DX009 (ip), vehicle: Klucel (hydroxypropylcellulose) (HPC)) was 116 % of control; the T/C (endpoint: median survival time, dose: 50.0 mg/kg/injection, schedule: Q01DX009 (ip), vehicle: Klucel (hydroxypropylcellulose) (HPC)) was 124 % of control; the T/C (endpoint: median survival time, dose: 100.0 mg/kg/injection, schedule: Q01DX009 (ip), vehicle: Klucel (hydroxypropylcellulose) (HPC)) is 160 % of control; the T/C (endpoint: median survival time, dose: 200.0 mg/kg/injection, schedule: Q01DX009 (ip), vehicle: Klucel (hydroxypropylcellulose) (HPC)) was 112 % of control.
Turning to `O=C(c1ccccc1)C(c1ccccc1)(c1ccccc1)c1ccccc1`, the T/C is, setting by setting: under setting [1], 93 % of control; under setting [2], 89 % of control; under setting [3], 89 % of control.
